These results are taken from ChEMBL document CHEMBL1817632, “Synthesis and cytotoxic activity of the heptaphylline and 7-methoxyheptaphylline series” (Eur J Med Chem, 2011).

Active and inactive are the calls of the source. The rule behind the calls is not given here.

The subject of data set [1] is KB. Briefly: Cytotoxicity against human KB cells after 3 days by resazurin microplate assay. Format: functional, cell-based. The conditions noted are these: 72 h.
Data set [2] has as its system NCI-H187. Kind of data set: Cytotoxicity against human NCI-H187 cells after 5 days by resazurin microplate assay. Format: functional, cell-based. The conditions noted are these: NCI-H187, 120 h.
For data set [3], the system named is Vero. Briefly: Cytotoxicity against african green monkey Vero cells expressing green fluorescent protein after 4 days by fluorescence analysis. The following applies: chlorocebus sabaeus, 96 h. Format: cell-based.
For data set [4], the system named is NCI-H187. Kind of data set: Ratio of Ellipticine IC50 to compound IC50 for human NCI-H187 cells. Format: functional.
The test system of data set [5] is KB. Kind of data set: Cytotoxicity against human KB cells at >200 uM after 3 days by resazurin microplate assay. The class given is functional, cell-based.
The test system of data set [6] is Vero. Kind of data set: Cytotoxicity against african green monkey Vero cells expressing green fluorescent protein at > 200 uM after 4 days by fluorescence analysis. Format: cell-based. The conditions noted are these: chlorocebus sabaeus, 96 h.
Data set [7] has as its system NCI-H187. Kind of data set: Cytotoxicity against human NCI-H187 cells at >200 uM after 5 days by resazurin microplate assay. The class given is functional, cell-based.
For data set [8], the system named is KB. Briefly: Ratio of Ellipticine IC50 to compound IC50 for human KB cells. The class given is functional.

On to `COc1ccc2c(c1)[nH]c1c(CC=C(C)C)c(OC)c(C=O)cc12`, for which the figures for the IC50 in the data set with KB [1], in the data set on NCI-H187 [2] and in the data set on Vero [3] were 11 µM, 19.5 µM and 61.1 µM, respectively.
The like results for `COc1ccc2c3cc(C=O)c(OC)c(CC=C(C)C)c3n(C)c2c1` were, in that order, 69.8 µM, 4.83 µM and 45.9 µM.
The like results for `COc1c(C=O)cc2c([nH]c3ccccc32)c1CC=C(C)C` were, in that order, 12.8 µM, 4.49 µM and 170 µM.
With `Cc1c2ccncc2c(C)c2c1[nH]c1ccccc12` [ELLIPTECINE], the results for the IC50 in the data set with NCI-H187 [2] and with Vero [3] were 2.77 µM and 3.82 µM, respectively.
Turning to `COc1ccc2c(c1)[nH]c1c(CC3OC3(C)C)c(O)c(C=O)cc12` (stereo not given), the figures for the IC50 in the data set with KB [1], in the data set with NCI-H187 [2] and in the data set on Vero [3] were 9.22 µM, 20.1 µM and 75.3 µM, respectively.
Consider `COc1cc2[nH]c3c(CC(Br)C(C)(C)O)c(O)c(C=O)cc3c2cc1Br` (stereo not given), for which the IC50 came to 36.3 µM in the data set on KB [1], 0.66 µM in the data set with NCI-H187 [2] and 12.5 µM in the data set with Vero [3]. For the same molecule, the “Ratio IC50” value in the data set on NCI-H187 [4] was found to be 4.
Turning to `COc1c(C=O)cc2c3ccccc3n(C)c2c1CC=C(C)C`, the results for the IC50 in the data set on KB [1], with NCI-H187 [2] and in the data set with Vero [3] were 147 µM, 62.5 µM and 149 µM, respectively.
With `COc1cc2[nH]c3c4c(c(C=O)cc3c2cc1Br)OC(C)(C)C(Br)C4` (stereo not given), the result in the data set with KB [5] and in the data set on NCI-H187 [7] was inactive. Further, in the data set with Vero [6], the Activity entry was “Non-toxic”.
Regarding `COc1ccc2c(c1)[nH]c1c3c(c(C=O)cc12)OC(C)(C)C(O)C3` (stereo not given), the results for the IC50 with KB [1] and in the data set on NCI-H187 [2] were 120 µM and 3.04 µM, respectively. Also, the Activity result with Vero [6] is “Non-toxic”.
`CC(C)=CCc1c(O)c(C=O)cc2c3ccccc3n(C)c12`: the IC50 in the data set with KB [1] came to 166 µM; with NCI-H187 [2], 44.2 µM; with Vero [3], 34.6 µM.
On to `COc1ccc2c(c1)[nH]c1c(CC=C(C)C)c(O)c(C=O)cc12`, for which, in the data set on Vero [6], the Activity result is recorded as “Non-toxic”.
In the case of `CC(C)=CCc1c(O)c(/C=N\O)cc2c1[nH]c1ccccc12` [HEPTAPHYLLINE OXIME], the figures for the “Ratio IC50” value in the data set with KB [8] and in the data set on NCI-H187 [4] were 10 and 138, respectively. The IC50 turned out to be 0.17 µM in the data set on KB [1], 0.02 µM in the data set with NCI-H187 [2] and 66 µM with Vero [3].
Consider `CC1(C)Oc2c(C=O)cc3c([nH]c4ccccc43)c2CC1O` (stereo not given), for which the IC50 in the data set on KB [1] stood at 5.99 µM; in the data set on NCI-H187 [2], 6.06 µM. Moreover, the Activity entry in the data set on Vero [6] was “Non-toxic”.
The like results for `CC(C)(O)C(Br)Cc1c(O)c(C=O)cc2c1[nH]c1ccccc12` (stereo not given) were, in that order, 17.4 µM, 30.2 µM and “Non-toxic”.
Taken in the same sequence, the figures for `COc1ccc2c(c1)[nH]c1c(CC=C(C)C)c(O)c(/C=N\O)cc12` were 18.2 µM, 3.67 µM and “Non-toxic”.
The like results for `CC1(C)CCc2c(c(C=O)cc3c2[nH]c2ccccc23)O1` were, in that order, 26.4 µM, 65.2 µM and “Non-toxic”.
For `CC1(C)Oc2c(C=O)cc3c([nH]c4ccccc43)c2CC1Br` (stereo not given), the results for the IC50 in the data set with KB [1] and in the data set on NCI-H187 [2] were 6 µM and 77.4 µM, respectively. Moreover, in the data set with Vero [6], the Activity entry is recorded as “Non-toxic”.
For `COc1ccc2c(c1)[nH]c1c3c(c(C=O)cc12)OC(C)(C)CC3`, the result in the data set on KB [5] and in the data set on NCI-H187 [7] was inactive. In addition, in the data set with Vero [6], the Activity result is “Non-toxic”.
For the molecule `CC1(C)OC1Cc1c(O)c(C=O)cc2c1[nH]c1ccccc12` (stereo not given), the IC50 in the data set with KB [1] is 54.8 µM; in the data set on NCI-H187 [2] it was 5.31 µM; with Vero [3] it was 74.5 µM.
Take `COc1ccc2c(c1)[nH]c1c3c(c(C=O)cc12)OC(C(C)(C)O)C3` (stereo not given): the IC50 with KB [1] was 71.2 µM; in the data set on NCI-H187 [2], 12.9 µM. For the same molecule, the Activity entry with Vero [6] is reported as “Non-toxic”.
